From patent publication US6908935B2, “Calcium receptor modulating agents” (Amgen Inc., priority 2002, dated 2005)

Target: T1, human parathyroid cell Ca^2+ receptor (hPCaR) (Homo sapiens, UniProt P41180)
T1 construct: expressed in transfected cells
T1 sequence (P41180 20-1078): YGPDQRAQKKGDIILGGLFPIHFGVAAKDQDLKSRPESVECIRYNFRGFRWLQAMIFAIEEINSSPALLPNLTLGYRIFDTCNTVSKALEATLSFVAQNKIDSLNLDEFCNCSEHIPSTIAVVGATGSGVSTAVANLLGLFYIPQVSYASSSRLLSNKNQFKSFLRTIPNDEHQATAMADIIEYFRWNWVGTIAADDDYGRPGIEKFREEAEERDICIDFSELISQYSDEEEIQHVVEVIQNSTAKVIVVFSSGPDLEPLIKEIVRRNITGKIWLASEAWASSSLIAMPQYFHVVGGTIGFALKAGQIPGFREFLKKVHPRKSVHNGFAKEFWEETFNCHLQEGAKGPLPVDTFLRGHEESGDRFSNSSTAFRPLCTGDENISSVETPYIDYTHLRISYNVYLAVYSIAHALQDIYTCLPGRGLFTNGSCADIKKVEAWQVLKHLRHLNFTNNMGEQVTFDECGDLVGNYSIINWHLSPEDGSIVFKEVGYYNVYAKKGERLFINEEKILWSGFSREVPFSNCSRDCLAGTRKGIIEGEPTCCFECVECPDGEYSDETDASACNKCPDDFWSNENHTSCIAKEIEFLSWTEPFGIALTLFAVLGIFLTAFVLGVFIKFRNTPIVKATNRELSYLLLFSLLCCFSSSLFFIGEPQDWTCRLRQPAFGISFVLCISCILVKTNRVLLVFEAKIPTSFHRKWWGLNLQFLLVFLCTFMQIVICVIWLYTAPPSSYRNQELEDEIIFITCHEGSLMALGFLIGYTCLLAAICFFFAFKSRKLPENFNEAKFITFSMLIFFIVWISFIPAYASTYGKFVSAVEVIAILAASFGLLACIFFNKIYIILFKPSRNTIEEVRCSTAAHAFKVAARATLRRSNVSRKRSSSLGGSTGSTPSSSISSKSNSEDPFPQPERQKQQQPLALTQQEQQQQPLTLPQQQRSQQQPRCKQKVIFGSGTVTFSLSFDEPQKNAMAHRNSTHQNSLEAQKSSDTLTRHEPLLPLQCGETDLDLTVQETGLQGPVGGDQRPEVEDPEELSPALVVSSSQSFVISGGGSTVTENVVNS
Assay: [Ca2+]i measurement with fluo-3 in HEK 293 4.0-7 cells stably transfected with hPCaR
Assay type: cell-based
Conditions: fluo-3 fluorescence (485/530 nm), effect on [Ca^2+]i
Outline: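 Cytosolic [Ca2+] was read as fluo-3 fluorescence (ex 485/em 530 nm) after compound addition to washed cells. Cells were hPCaR-transfected HEK 293 clone 7, dye-loaded 30 min at 37 °C with 2 μM fluo-3 acetoxymethyl ester in HEPES-buffered saline pH 7.45 containing 1 mM CaCl2 and 0.5% BSA.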

| EC50 [µM] | Compound |
| --- | --- |
| ≤ 10 | COc1cccc([C@@H](C)NCc2cccc(-c3ccc(F)cc3)c2)c1 [(1R)-N-((4′-fluoro-1,1′-biphenyl-3-yl)methyl)-1-(3-(methyloxy)phenyl)ethanamine] |
| ≤ 10 | COc1ccc(CN[C@H](C)c2cccc3ccccc23)cc1-c1ccc2nn(C)cc2c1 [(1R)-N-((3-(2-methyl-2H-indazol-5-yl)-4-(methyloxy)phenyl)methyl)-1-(1-naphthalenyl)ethanamine] |
| ≤ 10 | COc1ccc(CN[C@H](C)c2ccccc2)cc1-c1nccs1 [(1R)-N-((4-(methyloxy)-3-(1,3-thiazol-2-yl)phenyl)methyl)-1-phenylethanamine] |
| ≤ 10 | COc1ccc(CN[C@H](C)c2ccccc2)cc1-c1cnccn1 [Example 238, (1R)-N-((4-(methyloxy)-3-(2-pyrazinyl)phenyl)methyl)-1-phenylethanamine] |
| ≤ 10 | COc1ccc(-c2cc(CN[C@H](C)c3ccccc3)ccc2OC)nn1 [(1R)-N-((4-(methyloxy)-3-(6-(methyloxy)-3-pyridazinyl)phenyl)methyl)-1-phenylethanamine] |
| ≤ 10 | COc1ccc(CN[C@H](C)c2cccc(F)c2)cc1-c1ccccc1 [(1R)-1-(3-fluorophenyl)-N-((6-(methyloxy)-1,1′-biphenyl-3-yl)methyl)ethanamine] |
| ≤ 10 | COc1cccc([C@@H](C)NCc2ccc(OC)c(-c3cnc4c(ccn4C)c3)c2)c1 [(1R)-N-((4-(methyloxy)-3-(1-methyl-1H-pyrrolo[2,3-b]pyridin-5-yl)phenyl)methyl)-1-(3-(methyloxy)phenyl)ethanamine] |
| ≤ 10 | C[C@@H](NCc1ccc(C(F)(F)F)c(-c2ccc(C(F)(F)F)cc2)c1)c1cccc2ccccc12 [(1R)-N-((4′,6-bis(trifluoromethyl)-1,1′-biphenyl-3-yl)methyl)-1-(1-naphthalenyl)ethanamine] |
| ≤ 10 | COc1cccc([C@@H](C)NCc2ccc(OC)c(-c3cccs3)c2)c1 [(1R)-1-(3-(methyloxy)phenyl)-N-((4-(methyloxy)-3-(2-thienyl)phenyl)methyl)ethanamine] |
| ≤ 10 | COc1ccc(CN[C@H](C)c2ccc3ccccc3c2)cc1-c1cnccn1 [(1R)-N-((4-(methyloxy)-3-(2-pyrazinyl)phenyl)methyl)-1-(2-naphthalenyl)ethanamine] |
| ≤ 10 | COc1ccc(CN[C@H](C)c2ccccc2)cc1-c1csc(C)n1 [(1R)-N-((4-(methyloxy)-3-(2-methyl-1,3-thiazol-4-yl)phenyl)methyl)-1-phenylethanamine] |
| ≤ 10 | Cc1ccc([C@@H](C)NCc2cccc(-c3ccccn3)c2)cc1 [(1R)-1-(4-methylphenyl)-N-((3-(2-pyridinyl)phenyl)methyl)ethanamine] |
| ≤ 10 | COc1ccc(CN[C@H](C)c2cccc3ccccc23)cc1-c1ccc2c(ccn2CC2CC2)c1 [(1R)-N-((3-(1-(cyclopropylmethyl)-1H-indol-5-yl)-4-(methyloxy)phenyl)methyl)-1-(1-naphthalenyl)ethanamine] |
| ≤ 10 | Cc1ccc([C@@H](C)NCc2cccc(-c3ccc(C)nc3)c2)cc1 [(1R)-1-(4-methylphenyl)-N-((3-(6-methyl-3-pyridinyl)phenyl)methyl)ethanamine] |
| ≤ 10 | CCN(CC)CCCOc1ccc(-c2cc(CN[C@H](C)c3cccc4ccccc34)ccc2OC)cn1 [N-((3-(6-((3-(diethylamino)propyl)oxy)-3-pyridinyl)-4-(methyloxy)phenyl)methyl)-N-((1R)-1-(1-naphthalenyl)ethyl)amine] |
| ≤ 10 | COc1ccc(CN[C@H](C)c2cccc3ccccc23)cc1-c1ccc2ccccc2c1 [(1R)-N-((4-(methyloxy)-3-(2-naphthalenyl)phenyl)methyl)-1-(1-naphthalenyl)ethanamine] |
| ≤ 10 | COc1ccc(CN[C@H](C)c2cccc3ccccc23)cc1-c1cccc(C#N)c1 [2′-(methyloxy)-5′-((((1R)-1-(1-naphthalenyl)ethyl)amino)methyl)-1,1′-biphenyl-3-carbonitrile] |
| ≤ 10 | COc1ccc(CN[C@H](C)c2ccccc2)cc1-c1ccnc(Cl)c1 [(1R)-N-(3-(2-chloropyrid-4-yl)-4-methoxyphenyl)methyl-N-1-phenylethylamine] |
| ≤ 10 | COc1ccc(-c2cccc(CN[C@H](C)c3cccc4ccccc34)c2)cc1 [(1R)-N-((4′-(methyloxy)-1,1′-biphenyl-3-yl)methyl)-1-(1-naphthalenyl)ethanamine] |
| ≤ 10 | COc1ccc(CN[C@H](C)c2ccc3ccccc3c2)cc1-c1cnc(N)nc1 [5-(2-(methyloxy)-5-((((1R)-1-(2-naphthalenyl)ethyl)amino)methyl)phenyl)-2-pyrimidinamine] |
| ≤ 10 | COc1ccc(-c2cc(CN[C@H](C)c3cccc(OC)c3)ccc2OC)nc1 [(1R)-N-((4-(methyloxy)-3-(5-(methyloxy)-2-pyridinyl)phenyl)methyl)-1-(3-(methyloxy)phenyl)ethanamine] |
| ≤ 10 | COc1cccc([C@@H](C)NCc2cccc(-c3ccccc3F)c2)c1 [(1R)-N-((2′-fluoro-1,1′-biphenyl-3-yl)methyl)-1-(3-(methyloxy)phenyl)ethanamine] |
| ≤ 10 | COc1ccc(CN[C@H](C)c2ccccc2)cc1-c1ccoc1 [(1R)-N-((3-(3-furanyl)-4-(methyloxy)phenyl)methyl)-1-phenylethanamine] |
| ≤ 10 | CC(=O)Nc1cccc(-c2cccc(CN[C@H](C)c3cccc4ccccc34)c2)c1 [N-(3′-((((1R)-1-(1-naphthalenyl)ethyl)amino)methyl)-1,1′-biphenyl-3-yl)acetamide] |
